# Assay results taken from patent US20080085879A1, “METHODS OF TREATING ESTROGEN-RESPONSIVE CONDITIONS BY ORPHAN NUCLEAR RECEPTOR ACTIVATION” (University of Pittsburgh - Of the Commonwealth System of …, priority 2006, published 2008).
# Entries after “also recorded” stand apart in the source; their conditions may differ.
# Tests used:
# [1] = system: estrogen sulfotransferase (EST); experiment: EST mRNA expression in mouse tissues (Northern blot, real-time PCR) after agonist treatment; assay type: in vivo; conditions: for EST mRNA expression in liver: wild-type mice, compared to control (DMSO)
# Protocol: Transgenic mice, having a mixed background of C57BL/6J and 129/SvImJ, were created expressing activated LXRa in the liver under the control of the fatty acid binding protein (FABP) promoter. (FIG. 1) EST levels in liver cells of the transgenic mice were compared to wild-type mice using Northern blot analysis and real-time PCR, as described in Gong, H. et al. Mol. Endocrinol. 20:279-290 (2006) and Zhou, J. et al. J Biol Chem. 281: 15013-15020 (2006), respectively.
# Wild-type mice were treated with LXR agonists TO1317 (T0901317) or 22(R)-hydroxycholesterol (FIG. 1a), and EST levels were compared to DMSO-treated control mice as described above.
# LXRα and LXRβ double knockout (LXR DKO) mice were created as described in Peet, D. J. et al., Cell 93:693-704 (1998).
# [2] = system: uterine epithelial proliferation; experiment: Uterine estrogen response: epithelial proliferation by BrdU labeling in ovariectomized mice; assay type: in vivo, mouse
# [3] = system: estrogen-responsive uterine genes (Pgr, c-fos, Igf-1, Txnip); experiment: Estrogen-responsive uterine gene expression by real-time PCR in ovariectomized mice; assay type: in vivo, mouse
# uterus = experiment: Uterotropic bioassay; assay type: in vivo, mouse; conditions: wild type female mice, E2 5 μg/kg s.c. daily for 3 d
# Protocol: Ovariectomized wild type and VP-LXRα transgenic females were subjected to uterine estrogen response measurements that include epithelial proliferation by BrdU labeling and estrogen responsive gene expression by real-time PCR. Five-week old virgin females were subjected to ovariectomies. Seven days after the surgery, mice were given a single s.c. injection of 17β-estradiol (E2) (25 μg/mouse). 18 h after the E2 injection, mice were given a single i.p. injection of bromodeoxyuridine (BrdU) (60 mg/kg) and sacrificed 2 h after. One uterine horn was harvested for histology and measurement of cell proliferation by BrdU immunostaining (Xie, W., et al., Mol. Endocrinol. 11: 1766-1781 (1997)) and the other was harvested for RNA extraction and gene expression analysis by real-time PCR. In the uterotropic bioassay, 3-week-old virgin female mice received daily s.c. injections of vehicle or E2 (5 μg/kg) for 3 d. Mice were then sacrificed 24 h after the last E2 dose and the uteri were dissected, weighed, and photographed. When necessary, mice were subjected to daily treatment of TO1317 (50 mg/kg, i.p. injection) starting 3 d prior to the E2 treatment and continued until the completion of the experiments.
# CYP3A (PXR target gene) = experiment: CYP3A expression in mouse liver (Northern blot); assay type: in vivo
# LXRα = molecular target: T1, LXRα (Mus musculus, UniProt Q9Z0Y9); experiment: mEst promoter luciferase reporter assay in HepG2 cells co-transfected with LXRα; assay type: cell-based; conditions: TO1317 10 μM 24 h
# T1 construct: expressed in transfected cells; host or cells: HepG2
# T1 sequence (Q9Z0Y9 1-445): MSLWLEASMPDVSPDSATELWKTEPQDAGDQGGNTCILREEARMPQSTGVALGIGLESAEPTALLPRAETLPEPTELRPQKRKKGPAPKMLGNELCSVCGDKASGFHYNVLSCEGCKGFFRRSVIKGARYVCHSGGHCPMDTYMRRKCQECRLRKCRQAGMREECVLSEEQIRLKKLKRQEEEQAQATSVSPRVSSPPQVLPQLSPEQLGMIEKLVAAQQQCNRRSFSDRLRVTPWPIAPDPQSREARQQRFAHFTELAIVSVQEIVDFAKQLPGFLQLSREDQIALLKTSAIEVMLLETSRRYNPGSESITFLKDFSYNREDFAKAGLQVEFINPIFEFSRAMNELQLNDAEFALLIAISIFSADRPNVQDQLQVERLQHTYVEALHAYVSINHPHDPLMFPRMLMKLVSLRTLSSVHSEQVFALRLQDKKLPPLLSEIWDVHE
# From the text: (§1) The 4.2-kb (−4164 bp to +46 bp) 5′ regulatory sequences of the mEst gene were cloned by PCR using a template of mEst-containing bacterial artificial chromosome (BAC) clone (ID RP24-571N6) from the Children's Hospital Oakland Research Institute BACPAC Resource Center (Oakland, Calif.). Deletion mutants were generated by PCR-mediated mutagenesis. HepG2 cells were transfected with the reporter constructs and LXRα expression vector in 48-well plates as previously described . Gong, H. et al., Mol. Endocrinol. 20:279-290 (2006) When necessary, cells were treated with TO1317 (10 μM) for 24 h prior to luciferase assay. The transfection efficiency was normalized against the β-gal activities from a co-transfected CMX-β gal vector. The hydrodynamic liver transfection was performed as we previously described. Zhou, J. et al. J Biol Chem. 281: 15013-15020 (2006). EMSA were performed using in vitro transcribed and translated proteins as described previously. Saini, S. P. et al., Hepatology 41:497-505 (2005)
# mouse LXRα = molecular target: T2, mouse LXRα (Mus musculus, UniProt Q9Z0Y9); experiment: CHIP assay of HA-LXRα recruitment onto the Est promoter in transfected mouse liver; assay type: in vivo; conditions: wild type mouse liver, TO1317 50 mg/kg i.p.
# T2 construct: expressed in transfected cells; host or cells: liver of wild type mice (hydrodynamic transfection in vivo)
# T2 sequence (Q9Z0Y9 1-445): T1 sequence (Q9Z0Y9 1-445)
# From the text: Zhou, J. et al. J Biol Chem. 281: 15013-15020 (2006). […] Zhou, J. et al. J Biol Chem. 281: 15013-15020 (2006).
# [4] = system: mEst 2.1-kb natural promoter; experiment: Hydrodynamic liver transfection of Est promoter reporter; assay type: in vivo
# From the text: as §1
# [5] = MCF-7/VEGF breast tumor xenograft in ovariectomized nude mice; assay type: in vivo, mouse
# From the text: (§2) Ovariectomized nude mice were purchased from Taconic (Germantown, N.Y.). ER-positive and estrogen responsive breast cancer MCF-7 cells were used. The MCF-7 cells were MCF-7/VEGF cells that overexpress the vascular endothelial growth factor (VEGF), rather than parent MCF-7 cells. […] Guo, P. et al., Cancer Res. 63:4684-4691 (2003).
# (§3) MCF-7 breast tumors were established in the mammary fat pads of ovariectomized female nude mice as described previously. Briefly, 1×10^7 of MCF-7/VEGF cells were inoculated into the mammary fat pads of 8-week old ovariectomized female nude mice that were implanted with E2 pellets (0.72 mg/60-day release) or placebo pellets (Innovative Research of America, Sarasota, Fla.). The E2-treated mice were randomly divided into two groups, with one group receiving daily treatment of TO1317 (15 mg/kg by gavage) and the other receiving vehicle. The volumes of the tumors were measured using a caliper every five days. Mice were labeled with BrdU 30 min prior to sacrificing. The serum concentrations of E2 were measured using the ACTIVE® ESTRADIOL EIA kit (Diagnostic Systems Laboratories, Webster, Tex.).
# (§4) Breast tumors were established as described in Example 4, using MCF-7/VEGF cells.
# MCF-7/VEGF cells = experiment: as above; assay type: in vivo, mouse
# From the text: as §2, §3, §4
# EST = EST mRNA expression in primary human hepatocytes (RT-PCR); assay type: cell-based; conditions: compared to DMSO control
# Protocol: Expression of EST MRNA was measured as described above in human hepatocytes and in human breast cancer line MCF7.
# [6] = ovariectomized wild type female mice
structure (smiles),measurement,setting,value
CC(C)CC[C@@H](O)[C@@H](C)[C@H]1CC[C@H]2[C@@H]3CC=C4C[C@@H](O)CC[C@]4(C)[C@H]3CC[C@]12C [22(R)-hydroxycholesterol],EST mRNA expression in liver,[1],up-regulated
"C[C@]12CC[C@@H]3c4ccc(O)cc4CC[C@H]3[C@@H]1CC[C@@H]2O [E2, 17β-estradiol]",uterine BrdU labeling,"[2]; ovariectomized wild type mice, E2 25 μg/mouse s.c.",increased
same,"mRNA expression of Pgr, c-fos and Igf-1 in uterus",[3]; [6],induced
same,mRNA expression of Txnip in uterus,[3]; [6],suppressed
same,"uterotropic effect (uterine enlargement, water imbibition)",uterus,typical uterine enlargement
"CC(=O)[C@H]1[C@H](C#N)C[C@H]2[C@@H]3CC=C4C[C@@H](O)CC[C@]4(C)[C@H]3CC[C@@]21C [PCN, pregnenolone-16alpha-carbonitrile]",CYP3A expression,CYP3A (PXR target gene),induced
O=S(=O)(c1ccccc1)N(CC(F)(F)F)c1ccc(C(O)(C(F)(F)F)C(F)(F)F)cc1 [TO1317],EST levels in LXR DKO mice,"[1]; LXRα and LXRβ double knockout mice, compared with control mice",no increase
same,EST expression in testis,[1]; testis of male mice,not observed
same,EST mRNA expression in liver,[1],up-regulated
same,TO1317 effect on the E2 response (BrdU labeling) in EST null mice,[2]; EST null mice,abolished
same,E2 effect on uterine BrdU labeling,"[2]; ovariectomized wild type mice, TO1317 50 mg/kg i.p. daily pre-treatment, E2 25 μg/mouse s.c.",compromised
same,basal proliferation (BrdU labeling),"[2]; treatment alone, in the absence of E2",little effect
same,TO1317 effect on E2-responsive gene expression in EST null mice,"[3]; EST null mice, uterus",abolished
same,"E2 effects on the expression of E2-responsive genes (Pgr, c-fos, Igf-1, Txnip)","[3]; TO1317-treated ovariectomized wild type mice, uterus",abolished
same,activation of mutant variant of tk-Est/DR-4 reporter,LXRα; LXRα,not
same,activation of tk-Est/DR-4 reporter,LXRα; LXRα,activated
same,activation of 4.2-kb mEst promoter luciferase reporter,LXRα; wild type LXRα,activated
same,recruitment of HA-LXRα onto the Est promoter (CHIP),mouse LXRα,resulted in the recruitment
same,activation of 2.1-kb natural Est promoter transfected into mouse liver,[4],activated
same,hepatic EST expression in nude mice,[5]; TO1317-treated vs mock-treated nude mice (data not shown),significantly induced
same,circulating E2 levels,"[5]; tumor bearing mice, TO1317 15 mg/kg by gavage daily",decreased
same,tumor cell BrdU labeling index,"MCF-7/VEGF cells; E2-induced tumors, TO1317 15 mg/kg by gavage daily",decreased
same,E2-enhanced tumor growth (tumor volume),"MCF-7/VEGF cells; E2 pellets, TO1317 15 mg/kg by gavage daily vs vehicle, 15 mg/kg",inhibited; also recorded: significantly attenuated
C[C@@H]1C[C@H]2[C@@H]3CCC4=CC(=O)C=C[C@]4(C)[C@@]3(F)[C@@H](O)C[C@]2(C)[C@@]1(O)C(=O)CO [dexamethasone],EST expression in PXR−/− mice,"[1]; PXR−/− mice, liver",still induced
same,EST mRNA induction in human hepatocytes,EST,increased induction
